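Assay format: 96-well plates, 48-hour exposure. TGI is the concentration that stops growth completely.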
Experiments:
Test in all cases: growth of human tumour cells (NCI), 48 h
PC-3 prostate = test system: PC-3 prostate
KM12 colon = test system: KM12 colon
MDA-MB-231 breast = test system: MDA-MB-231 breast
RPMI-8226 leukemia = test system: RPMI-8226 leukemia
HCT-116 colon = test system: HCT-116 colon
MOLT-4 leukemia = test system: MOLT-4 leukemia
COLO 205 colon = test system: COLO 205 colon
SF-295 CNS = test system: SF-295 CNS
MDA-N = test system: MDA-N
IGROV1 ovarian = test system: IGROV1 ovarian
T-47D breast = test system: T-47D breast
SK-MEL-28 melanoma = test system: SK-MEL-28 melanoma
NCI-H23 lung = test system: NCI-H23 lung
SK-OV-3 ovarian = test system: SK-OV-3 ovarian
SW-620 colon = test system: SW-620 colon
EKVX NSCLC = test system: EKVX NSCLC
SNB-19 CNS = test system: SNB-19 CNS
A498 renal = test system: A498 renal

| Compound | TGI (PC-3 prostate) [µM] | TGI (KM12 colon) [µM] | TGI (MDA-MB-231 breast) [µM] | TGI (RPMI-8226 leukemia) [µM] | TGI (HCT-116 colon) [µM] | TGI (MOLT-4 leukemia) [µM] | TGI (COLO 205 colon) [µM] | TGI (SF-295 CNS) [µM] | TGI (MDA-N) [µM] | TGI (IGROV1 ovarian) [µM] | TGI (T-47D breast) [µM] | TGI (SK-MEL-28 melanoma) [µM] | TGI (NCI-H23 lung) [µM] | TGI (SK-OV-3 ovarian) [µM] | TGI (SW-620 colon) [µM] | TGI (EKVX NSCLC) [µM] | TGI (SNB-19 CNS) [µM] | TGI (A498 renal) [µM] |
| --- | --- | --- | --- | --- | --- | --- | --- | --- | --- | --- | --- | --- | --- | --- | --- | --- | --- | --- |
| C#CCOCC12C=CC(O1)C1C(=O)N(C)C(=O)C12 (stereo not given) | > 100 | > 100 | > 100 | > 100 | > 100 | > 100 | > 100 | > 100 | > 100 | > 100 | > 100 | > 100 | > 100 | > 100 | > 100 | > 100 | > 100 | > 100 |
| CC(=O)OC1C(O)COC(O[C@H]2CC[C@]34C[C@]35CC[C@]3(C)C([C@@]6(C)CC[C@@H](C(C)(C)O)O6)[C@@H](O)C[C@@]3(C)C5C[C@H](OC3OCC(O)C(O)C3O)[C@H]4C2(C)C)C1OC1OCC(O)C(O)C1O (stereo not given in full) | > 100 | > 100 | > 100 | > 100 | > 100 | > 100 | > 100 | > 100 | > 100 | > 100 | > 100 | > 100 | > 100 | > 100 | > 100 | > 100 | > 100 | > 100 |
| COc1cc(OC)c(OC)cc1/C=N/N=C(\N)NO | > 100 | > 100 | > 100 | > 100 | > 100 | > 100 | > 100 | > 100 | > 100 | > 100 | > 100 | > 100 | > 100 | > 100 | > 100 | > 100 | > 100 | > 100 |
| CCOC(=O)c1sc2c(c1OC(=O)c1cccs1)c(=O)n(-c1ccccc1)c(=S)n2-c1ccccc1 | 31.8 | 42.3 | 41.8 | 31.3 | 22 | 40 | 35.6 | > 100 | > 100 | 28 | > 100 | 35.4 | 46.5 | 42.9 | 65.5 | 79.5 | 88.5 | 18.9 |
| [N-]=[N+]=Nc1c(-c2ccccc2)c(Cl)nc2ccccc12 | > 100 | 45.2 | > 100 | > 100 | > 100 | > 100 | 44.7 | > 100 | > 100 | > 100 | > 100 | > 100 | > 100 | > 100 | > 100 | > 100 | > 100 | 72.2 |
| COCn1c2ccc(OC(C)=O)cc2c2c(=O)oc(N(C)C)nc21 | > 100 | > 100 | > 100 | > 100 | > 100 | > 100 | > 100 | > 100 | > 100 | > 100 | > 100 | > 100 | > 100 | > 100 | > 100 | > 100 | > 100 | > 100 |
| COC(=O)c1ccc2c(O)c(O)ccc2c1 | 12.5 | 30.8 | 15.4 | 61.2 | 32 | 13.7 | 26.7 | 17.2 | 3.29 | 31.6 | 42.6 | 31.4 | 22.7 | 38.7 | 25.3 | 53.5 | 27.5 | 47.7 |
| CCC1C(c2cc(OC)c(OC)c(OC)c2)c2cc3c(cc2OC1N1CCCC1)OCO3 (stereo not given) | > 37.6 | 22 | 20.5 | 26.2 | 11.5 | 22.8 | 12.1 | 8.25 | 0.795 | 17.8 | 41.9 | 60.6 | 39 | 26.6 | 45.4 | 59.8 | 24 | 14 |
| CCCN(C(=O)c1c(Cl)nnc(Cl)c1C(=O)c1cc(Cl)nnc1Cl)c1cc(Cl)nnc1Cl | 22.2 | 26.4 | 34.3 | 17.1 | 19.6 | 12.5 | 18.6 | 42.3 | 30 | 21.2 | 23 | 28.1 | 20.3 | > 100 | 25.5 | 27.3 | 87.7 | 33.1 |
| CC1=NN(c2ccccc2)C(=O)/C1=C/c1ccc(O)cc1 | > 100 | > 100 | > 100 | > 100 | > 100 | > 100 | > 100 | > 100 | > 100 | > 100 | > 100 | > 100 | > 100 | > 100 | > 100 | > 100 | > 100 | > 100 |
